Experimental data reported in patent US8791098B2 (priority 2008, dated 2014).
≈ marks a conversion by molar mass, not a printed value.

Columns and labels:
HL-60 cells = assay: Apoptosis induction, DNA laddering; assay type: cell-based, human; details: for apoptosis induction (DNA laddering): HL-60, 24 hours after treatment
Description: Detection of DNA laddering: Apoptotic DNA fragmentation was investigated using the method described by Gong et al. 1-2 μg DNA were loaded into a well of a 1.7% agarose gel, separated by electrophoresis at 4 volts/cm for approximately 4 hours using 0.5×TBE buffer (0.045 M Tris-borate, 1 mM EDTA). The resulting bands were stained by ethidium bromide and detected under UV-light.
Anti-mitotic agents like epothilone (Trivedi, M. et al., Future Oncol. 4, 483-500 (2008)) disorazol (Elnakady, Y. A. et al., Biochem. Pharmacol. 67, 927-935 (2004); Irschik, H. et al., Antibiot. (Tokyo) 48, 31-35 (1995)), and tubulysin (Khalil, M. et al., Chembiochem. 7, 678-683 (2006)) are known to induce apoptosis in different cancer cell lines. A hallmark of apoptosis induced by animitotic agent is the cleavage the chromosomal DNA into distinct fragments which can be separated via gel electrophoresis to give the so called DNA-Ladder. We tested the ability of pre-tubulysin-816 and -827 to induce apoptosis in HL-60 cell lines. Growing cells were treated with different concentrations of the drugs for 24 and 48 hours. After that cells were collected with centrifugation and the chromosomal DNA was separated by using agarose gel electrophoresis as described in the methods section. The resulting DNA bands were stained with ethidium bromide and visualized under UV-light. […] However, the concentration of Pre-tubulysin-816 that was needed to induce apoptosis in HL-60 cells was about 10 folds higher than that of pre-tubulysin-827 under the same experimental conditions. In Summary pre-tubulysins 816 and 827 are novel antimitotic drugs that target the microtubules, induce G2M arrest, and induce apoptosis in cancer cell lines. However, the molecular details of apoptosis induction caused by these Drugs is still to be investigated.

HL-60 = assay: cells; assay type: cell-based, human; details: Homo sapiens; HL-60, average of two measurements; read-out: IC50
Description: (§1) Cytotoxicity testing of pretubulysin (AU827), N-desmethyl-pretubulysin (AU816) and Tubulysin A and D was performed as follows: Cells were seeded at 6×10^3 cells per well of 96-well plates in 180 μl complete medium and directly treated with varying concentrations of (pre-)tubulysins diluted in methanol. Each compound was tested in duplicate as well as the internal methanol control. After 5 d incubation, 20 μl of 5 mg/ml MTT (Thiazolyl blue tetrazolium bromide) in PBS was added per well and it was further incubated for 2 h at 37° C. The medium was then discarded and cells were washed with 100 μl PBS before adding 100 μl 2-propanol/10 N HCl (250:1) in order to dissolve formazan granules.
(§2) The absorbance at 570 nm was measured using a microplate reader (EL808, Bio-Tek Instruments Inc.), and cell viability was expressed as percentage relative to the respective methanol control. IC50 values were obtained by plotting relative growth inhibition in % against the compound concentration on a logarithmic scale. After sigmoidal curve fitting IC50 values can be determined. The IC50[per ml] are shown in the following table (values represent the average of two measurements): […]

HepG2 = assay: cells; assay type: cell-based, human; details: Homo sapiens; HepG2, average of two measurements; read-out: IC50
Description: as §1, §2

SW480 = assay: cells; assay type: cell-based, human; details: Homo sapiens; SW480, average of two measurements; read-out: IC50
Description: as §1, §2

U937 [1] = assay: cells; assay type: cell-based, human; details: Homo sapiens, U-937; U937, average of two measurements; read-out: IC50
Description: as §1, §2

L929 = assay: Anti-proliferation MTT assay (Example 2, Table 1); assay type: cell-based; details: L929 mouse connective tissue fibroblast
Description: (§3) A given number of cells were cultivated in 96-well plates with serial dilutions of the drugs up to 100 ng/ml. Tubulysin A is used as a positive control, whereas methanol is used as a negative control. After 5 days of incubation the metabolic activities of the cells were measured using MTT-assay as described under the methods section.

U937 [2] = assay: Anti-proliferation MTT assay (Example 2, Table 1); assay type: cell-based; details: U-937; U937 human histiocytic lymphoma
Description: as §3

COS-7 = assay: cells; assay type: cell-based, African green monkey; details: Chlorocebus sabaeus; COS-7, average of two measurements; read-out: IC50
Description: as §1, §2

KB.3.1 cells = assay: Cell cycle analysis (FACS, DNA content); assay type: cell-based, human
Description: Cell cycle analysis: approximately 10^6 cells were harvested by centrifugation and fixed in −20° C. cold 80% methanol. After 30 min of incubation on ice, the cells were washed with PBS and then with saponin containing PBS (0.1%). For DNA staining cells were incubated for 30 min at 37° C. in a solution containing 20 μg ml^−1 Propidium iodide, and 1 mg ml^−1 RNase. Samples were analysed by FacScan (Becton Dickinson).
All drugs that target the microtubules are known to induce a cell cycle arrest in G2M phase in different cell lines. The ability of pre-tubulysin-816 and -827 on the progress of cell cycle in the cervices carcinoma cell line KB.3.1 was tested. Cells were treated with different concentrations of the drugs and incubated for 24 hours under cultivation conditions. After the incubation time was ended, cells were collected by centrifugation, fixed and the DNA was labeled as described in the method sections. The DNA content of the cells was detected via FACS analysis. The resulting data were calculated using Dean-Jett-Fox algorithm.

A549 = assay: Anti-proliferation MTT assay (Example 2, Table 1); assay type: cell-based; details: A549 human lung carcinoma
Description: as §3

[3] = molecular target: T1, purified microtubules protein isolated from porcine brain (Sus scrofa, UniProt P02550+P02554); assay: Turbidometric microtubules protein polymerization assay; assay type: biochemical; details: 10 μM microtubules protein, 10 min, 37° C.
T1 construct: Microtubules proteins were purified from porcine brain; from tissue; host or cells: porcine brain
T1 sequence (P02554 whole entry): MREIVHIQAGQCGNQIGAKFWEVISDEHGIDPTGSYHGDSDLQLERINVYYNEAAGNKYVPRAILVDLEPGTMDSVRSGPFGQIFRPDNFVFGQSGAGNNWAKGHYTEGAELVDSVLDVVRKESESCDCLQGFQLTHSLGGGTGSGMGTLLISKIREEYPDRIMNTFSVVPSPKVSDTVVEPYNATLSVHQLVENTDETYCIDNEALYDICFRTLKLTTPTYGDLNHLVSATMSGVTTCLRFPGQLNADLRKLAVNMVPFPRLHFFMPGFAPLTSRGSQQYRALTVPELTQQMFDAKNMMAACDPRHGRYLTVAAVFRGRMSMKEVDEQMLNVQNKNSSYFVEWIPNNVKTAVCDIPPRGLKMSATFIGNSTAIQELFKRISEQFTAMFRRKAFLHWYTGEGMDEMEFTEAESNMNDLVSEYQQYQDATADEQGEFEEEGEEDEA
T1 sequence (P02550 whole entry): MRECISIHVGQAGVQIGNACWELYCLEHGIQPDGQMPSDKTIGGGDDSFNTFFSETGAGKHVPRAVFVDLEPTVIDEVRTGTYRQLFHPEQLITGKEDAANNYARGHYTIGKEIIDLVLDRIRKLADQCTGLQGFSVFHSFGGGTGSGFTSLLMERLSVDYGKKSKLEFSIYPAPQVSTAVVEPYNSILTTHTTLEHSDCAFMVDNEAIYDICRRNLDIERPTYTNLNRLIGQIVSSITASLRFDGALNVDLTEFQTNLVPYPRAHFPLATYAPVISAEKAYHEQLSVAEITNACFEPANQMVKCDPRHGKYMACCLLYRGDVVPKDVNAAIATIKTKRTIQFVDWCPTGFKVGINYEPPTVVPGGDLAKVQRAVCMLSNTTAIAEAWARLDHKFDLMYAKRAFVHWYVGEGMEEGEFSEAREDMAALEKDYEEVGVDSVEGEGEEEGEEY
Description: Tubulin purification: Microtubules proteins were purified from porcine brain by using standard procedures that includes three cycles of temperature-dependent polymerization and de-polymerization, as described elsewhere.
Polymerisation assay: Tubulin polymerisation was monitored by using turbidometry assay (lit). Samples (200 μl, 10 μM tubulin) in PEM polymerisation buffer (0.1 M PIPES, pH 6.6, 1 mM EGTA, 1 mM MgSO4, and 1 mM GTP), were rapidly warmed to 37° C. in a water-jacketed cuvette holder of a diode array photometer (Beckman spectrophotometer DU 7500). Absorbance at 350 nm where monitored in the absence and the presence of the drugs.
10 μM of purified microtubles protein were mixed on ice with 0, 1.7, 3.2, and 6.7 μM pre-tubulysin-816. Microtubules protein polymerization was then monitored for 10 min at 350 nm and 37° C. […] 1.7 μM of the drug was able to inhibit the polymerization of the protein by approximately 20%. Increase the concentration of the drug to 6.7 μM induced an inhibition of the polymerization to 60%.
Therefore, we were interested to test its activity on the polymerization of microtubules in vitro. We first studied its polymerization inhibition potential on microtubules polymerization. 10 μM of purified microtubules protein were mixed on ice with 0, 1, 1.7 and 3.4 μM pre-tubulysin-827 on ice. Microtubules protein polymerization was then monitored for 10 min at 350 nm and 37° C.

| SMILES | apoptosis induction (DNA laddering) (HL-60 cells) | IC50 (HL-60) [ng/mL] | IC50 (HepG2) [ng/mL] | IC50 (SW480) [ng/mL] | IC50 (U937 [1]) [ng/mL] | IC50 (L929) [ng/mL] | IC50 (U937 [2]) [ng/mL] | IC50 (COS-7) [ng/mL] | cells accumulated in the G2M-phase (KB.3.1 cells; KB3.1 cells, 100 ng/ml, 24 h (control approximately 30%)) [%] | IC50 (A549) [ng/mL] | inhibition at 1 µM ([3]; 1 μM drug) [%] | inhibition at 3.4 µM ([3]; 3.4 μM drug) [%] | concentration needed to induce apoptosis relative to pre-tubulysin-827 (HL-60 cells; HL-60, same experimental conditions) | G2M cell cycle arrest (KB.3.1 cells; KB.3.1 cells, 24 hours) | inhibition at 1.7 µM ([3]; 1.7 μM drug) [%] | inhibition at 6.7 µM ([3]; 6.7 μM drug, printed as inhibition 'to 60%') [%] |
| --- | --- | --- | --- | --- | --- | --- | --- | --- | --- | --- | --- | --- | --- | --- | --- | --- |
| CC[C@H](C)[C@H](NC(=O)[C@H]1CCCCN1C)C(=O)N(C)[C@H](CCc1nc(C(=O)N[C@@H](Cc2ccccc2)C[C@H](C)C(=O)O)cs1)C(C)C [pre-tubulysin-827, pretubulysin] | able to induce apoptosis | 0.0142 (≈ 0.0212 nM) | 0.64 (≈ 0.955 nM) | 0.21 (≈ 0.313 nM) | 0.043 (≈ 0.0642 nM) | 4.1 (≈ 6.12 nM) | 0.09 (≈ 0.134 nM) | 1.13 (≈ 1.69 nM) | 65 | 9 (≈ 13.4 nM) | ~45 | > 85 | – | – | – | – |
| CC[C@H](C)[C@H](NC(=O)[C@H]1CCCCN1C)C(=O)N(C)[C@H](CCc1nc(C(=O)N[C@H](CCC(=O)O)Cc2ccccc2)cs1)C(C)C [pre-tubulysin-816, N-desmethyl-pretubulysin] | able to induce apoptosis | 0.22 (≈ 0.335 nM) | 8.75 (≈ 13.3 nM) | 3.16 (≈ 4.82 nM) | 0.38 (≈ 0.579 nM) | 37 (≈ 56.4 nM) | 0.4 (≈ 0.61 nM) | 9.63 (≈ 14.7 nM) | – | 95 (≈ 145 nM) | – | – | about 10 folds | induced an accumulation of the cells in the G2M-phase | ~20 | 60 |
